Measurements: publication PMC11855827, “High-Throughput Screening of Five Compound Libraries for Anthelmintic Activity and Toxicity Leads to the Discovery of Two Flavonoid Compounds” (International Journal of Molecular Sciences, 2025)
Values joined by “and” are separate entries in the source; they are usually repeats but may differ in a detail not shown here. Equal values may be shown once. Where a name gives a salt, the structure may show the parent alone. Read-outs that look alike come from different tables or passages of the source.

System: C. elegans
[1] = Table S2, C. elegans SS assay, 110 μM, 0 h, averages of 4 data points
[2] = Table S2, C. elegans SS assay, 110 μM, 24 h, averages of 4 data points

Row | Compound | Percentage of motility inhibition 0 h [1] | Percentage of motility inhibition 24 h [2] [%] | Percentage of motility inhibition 0 h (110 µM) [%] | Percentage of motility inhibition 24 h (110 µM) [%]
1 | CC(=O)O[C@@H]1[C@@H](O)[C@H](O[C@H]2CC[C@]34C[C@]35CC[C@]3(C)[C@@H]([C@@]6(C)CC[C@@H](C(C)(C)O)O6)[C@@H](O)C[C@@]3(C)[C@@H]5C[C@H](O[C@@H]3O[C@H](CO)[C@@H](O)[C@H](O)[C@H]3O)[C@H]4C2(C)C)OC[C@H]1O [Isoastragaloside II] | 0% | 9 | – | –
2 | C[C@@H]1C[C@H]2O[C@@]3(O[C@@H]2C(C)(C)O)[C@H](O)[C@@]2(C)[C@@H]4CC[C@H]5C(C)(C)[C@@H](O[C@@H]6OC[C@@H](O)[C@H](O)[C@H]6O)CC[C@@]56C[C@@]46CC[C@]2(C)[C@@H]13 [Cimigenoside] | 30% | 17 | – | –
3 | C[C@@H]1CC[C@@H]2O[C@@]23C(=O)C(=O)[C@@H]2[C@@H](C2(C)C)[C@@]13C [Kanshone C] | 17% | 22 | – | –
4 | CC1OC2OC3C(OCC(O)C3O)OC(=O)C34CCC(C)(C)CC3C3=CCC5C6(C)CC(O)C(OC7OC(CO)C(O)C(O)C7OC7OCC(OC(=O)CC(C)(O)CC(=O)OC1C(OC1OCC(O)C(O)C1O)C2O)C(O)C7O)C(C)(CO)C6CCC5(C)C3(C)CC4O (stereo not shown) [Tubeimoside II] | 0% | 2 | – | –
5 | O=C([O-])[C@H](O)[C@@H](O)[C@H](O)[C@H](O)CO.[Na+] [Gluconate (sodium)] | 15% | 3 | – | –
6 | C[C@H](CC[C@@H](O[C@@H]1O[C@H](CO)[C@@H](O)[C@H](O)[C@H]1O[C@H]1O[C@@H](CO)[C@H](O)[C@@H](O)[C@@H]1O)C(C)(C)O)C1CC[C@@]2(C)C3CC=C4C(CC[C@H](O)C4(C)C)[C@]3(C)C(=O)C[C@]12C (stereo partly shown) [11-Oxomogroside IIa] | 0% | 0 | – | –
7 | CC1=CC(=O)[C@@H](O)[C@]2(C)[C@H]3[C@@H](O)[C@H](O)[C@@]4(C)OC[C@@]35[C@@H](C[C@@H]12)OC(=O)[C@H](O)[C@]54O [Bruceine D] | 25% | 54 | – | –
8 | CN[C@@H]1[C@H](O[C@H]2[C@H](O[C@H]3[C@H](O)[C@@H](O)[C@H](NC(=N)N)[C@@H](O)[C@@H]3NC(=N)N)O[C@@H](C)[C@]2(O)CO)O[C@@H](CO)[C@H](O)[C@H]1O.CN[C@@H]1[C@H](O[C@H]2[C@H](O[C@H]3[C@H](O)[C@@H](O)[C@H](NC(=N)N)[C@@H](O)[C@@H]3NC(=N)N)O[C@@H](C)[C@]2(O)CO)O[C@@H](CO)[C@H](O)[C@H]1O.O=S(=O)(O)O.O=S(=O)(O)O.O=S(=O)(O)O [Dihydrostreptomycin (sulfate)] | 0% | 0 | – | –
9 | COc1cc(-c2oc3cc(OC)c(OC)c(O)c3c(=O)c2OC)ccc1O [Chrysosplenetin] | 17% | 6 | – | –
10 | C[C@@]12C=Cc3occc3[C@H]1CC[C@@]13C[C@@H](CC[C@H]12)[C@@](O)(CO)C3 [Kahweol] | 11% | 19 | – | –
11 | C[C@@H](O)[C@H]1C(=O)N2C(C(=O)O)=C(S[C@@H]3CN[C@H](CNS(N)(=O)=O)C3)[C@H](C)[C@H]12.O [Doripenem (monohydrate)] | 15% | 7 | – | –
12 | Cl.Nc1ncnc2nc[nH]c12 [Adenine (hydrochloride)] | 0% | 0 | – | –
13 | Phillyrin | 0% | 0 | – | –
14 | CC(N)C12CC3CC(CC(C3)C1)C2.Cl (stereo not shown) [Rimantadine (hydrochloride)] | 45% | 25 | – | –
15 | O=C(/C=C/c1ccc(O)cc1)c1ccc(O[C@@H]2O[C@H](CO)[C@@H](O)[C@H](O)[C@H]2O)cc1O [Neoisoliquiritin] | 17% | 11 | – | –
16 | O=C(/C=C\c1ccc(O)c(O)c1)N[C@@H](Cc1ccc(O)c(O)c1)C(=O)O [Clovamide] | 2% | 0 | – | –
17 | C=C1CC[C@@H]2[C@](C)(COC(=O)CCC(=O)O)[C@H](OC(=O)CCC(=O)O)CC[C@@]2(C)[C@@H]1/C=C/C1=CCOC1=O [Dehydroandrographolide succinate] | 7% and 0% | – | – | –
18 | COC(=O)C1=CO[C@@H](C)[C@H]2CN3CC[C@]4(C(=O)Nc5ccccc54)[C@@H]3C[C@H]12 [Mitraphylline] | 0% | 21 | – | –
19 | O=C(O)Cc1c[nH]c2ccccc12 [3‐Indoleacetic acid] | 4% | 11 | – | –
20 | COc1cc(C(=O)OCCCCN=C(N)N)cc(OC)c1O.Cl [Leonurine (hydrochloride)] | 0% | 0 | – | –
21 | COc1cc(O)cc(O)c1C(=O)/C=C/c1ccccc1 [(E)‐Cardamonin] | 13% | 8 | – | –

Row | Compound | Percentage of motility inhibition 0 h [1] | Percentage of motility inhibition 24 h [2] [%] | Percentage of motility inhibition 0 h (110 µM) [%] | Percentage of motility inhibition 24 h (110 µM) [%]
22 | OCc1ccc(O)cn1 [2‐Hydroxymethyl‐5‐hydroxypyridine] | 0% | 0 | – | –
23 | CC1(C)S[C@@H]2[C@H](NC(=O)COc3ccccc3)C(=O)N2[C@H]1C(=O)[O-].[K+] [Penicillin V (Potassium)] | 23% | 24 | – | –
24 | O=c1c2cc(O)c(O)cc2oc2c([C@@H]3O[C@H](CO)[C@@H](O)[C@H](O)[C@H]3O)c(O)cc(O)c12 [Isomangiferin] | 28% | 46 | – | –
25 | C/C=C1/[C@H](O[C@@H]2O[C@H](CO)[C@@H](O)[C@H](O)[C@H]2O)OC=C(C(=O)OC)[C@H]1CC(=O)OC[C@H]1O[C@@H](OCCc2ccc(OC(=O)C[C@@H]3C(C(=O)OC)=CO[C@@H](O[C@@H]4O[C@H](CO)[C@@H](O)[C@H](O)[C@H]4O)/C3=C/C)cc2)[C@H](O)[C@@H](O)[C@@H]1O [GL3] | 0% | 18 | – | –
26 | NCCCC[C@H](N)C(=O)O.O [L-Lysine hydrate] | 8% | 2 | – | –
27 | Nc1ccc2cc3ccc(N)cc3nc2c1.Nc1ccc2cc3ccc(N)cc3nc2c1.O=S(=O)(O)O [Proflavine (hemisulfate)] | 7% | 16 | – | –
28 | CC[C@H]1CN2CCc3cc(OC)c(OC)cc3[C@@H]2C[C@@H]1C[C@H]1NCCc2cc(O)c(OC)cc21.Cl.Cl [Cephaeline (dihydrochloride)] | 18% | 4 | – | –
29 | (‐)‐Epigalloca techin | 3% | 0 | – | –
30 | C=C(C(=O)O)[C@@H]1CC[C@@H](C)[C@@H]2CCC(C)=C[C@@H]21 [Artemisic acid] | 1% | 14 | – | –
31 | COc1cc2oc(-c3ccc(O)cc3)cc(=O)c2c(O)c1[C@@H]1O[C@H](CO)[C@@H](O)[C@H](O)[C@H]1O[C@@H]1O[C@H](CO)[C@@H](O)[C@H](O)[C@H]1O [Spinosin] | – | – | 2 | 6
32 | CC1(C)[C@@H](O)CC[C@]2(C)[C@H]3C(=O)C=C4[C@@H]5C[C@@](C)(C(=O)O)CC[C@]5(C)CC[C@@]4(C)[C@]3(C)CC[C@@H]12 [18β-Glycyrrhetinic acid] | 15% and 6% | – | – | –
33 | COc1cc(/C=C/C(=O)OCC[N+](C)(C)C)cc(OC)c1O [Sinapine] | – | – | 0 | 1
34 | CC1(C)CC[C@]2(C(=O)O[C@@H]3O[C@H](CO)[C@@H](O)[C@H](O)[C@H]3O)CC[C@]3(C)C(=CC[C@@H]4[C@@]5(C)C[C@@H](O)[C@H](O)C(C)(C)[C@@H]5CC[C@]43C)[C@@H]2[C@@H]1O [Arjunetin] | 0% | 18 | – | –
35 | Capsaicin β‐D‐glucopyrano side | – | – | 3 | 0
36 | O=c1cc(-c2ccc(O)cc2)oc2c([C@@H]3OC[C@@H](O)[C@H](O)[C@H]3O)c(O)c([C@@H]3O[C@H](CO)[C@@H](O)[C@H](O)[C@H]3O)c(O)c12 [Vicenin 3] | 15% | 3 | – | –
37 | COC(=O)C1=COC(O[C@@H]2O[C@H](CO)[C@@H](O)[C@H](O)[C@H]2O)/C(=C/C(=O)O)C1CC(=O)OCCc1ccc(O)c(O)c1 (stereo partly shown) [Oleuropeinic acid] | 0% | 8 | – | –
38 | CC[C@@H](C(=O)[C@@H](C)[C@@H](O)[C@H](C)[C@@H]1O[C@@H]([C@@H](CC)C(=O)O)CC[C@@H]1C)[C@H]1O[C@]2(C=C[C@@H](O)[C@]3(CC[C@@](C)([C@H]4CC[C@](O)(CC)[C@H](C)O4)O3)O2)[C@H](C)C[C@@H]1C [Salinomycin (sodium salt)] | 28% | 18 | – | –
39 | O=c1c(-c2ccc(O)c(O)c2)coc2c([C@@H]3O[C@H](CO)[C@@H](O)[C@H](O)[C@H]3O)c(O)ccc12 [3'‐Hydroxypuerarin] | 1% | 0 | – | –
40 | CC1(C)S[C@@H]2[C@H](NC(=O)C(C(=O)[O-])c3ccccc3)C(=O)N2[C@H]1C(=O)[O-].[Na+].[Na+] (stereo partly shown) [Carbenicillin (disodium)] | 27% | 27 | – | –
41 | COc1cc(C)c2c(=O)c(-c3ccccc3)coc2c1 [5‐Methyl‐7‐methoxyisoflavone] | 16% | 0 | – | –
42 | C[C@H](CC[C@@H](O[C@@H]1O[C@H](CO)[C@@H](O)[C@H](O)[C@H]1O[C@@H]1O[C@H](CO)[C@@H](O)[C@H](O)[C@H]1O)C(C)(C)O)[C@H]1CC[C@@]2(C)[C@@H]3CC=C4[C@@H](CC[C@H](O[C@@H]5O[C@H](CO)[C@@H](O)[C@H](O)[C@H]5O)C4(C)C)[C@]3(C)[C@H](O)C[C@]12C [Mogroside III-E] | 25% | 17 | – | –
